Data published in US11147819B2, “EZH2 inhibitors for treating cancer” (Epizyme, Inc., priority 2016, dated 2021).

What was measured:
KARPAS-422 = assay: Combination study with tazemetostat (synergy by IC50 shifts or Calcusyn); assay type: cell-based; conditions: KARPAS-422 (EZH2 mutant)
Method: (§1) Synergy was assessed by IC50 shifts or Calcusyn. [table]

SU-DHL5 = assay: as above; assay type: cell-based; conditions: SU-DHL-5 (EZH2 wt)
Method: as §1

TMD8 = assay: as above; assay type: cell-based; conditions: TMD8 (ABC)
Method: as §1

Oral bioavailability = conditions: in vivo
[1] = test system: OCI-LY19 cell line xenograft; assay: Cell line xenograft model, tumor growth; assay type: in vivo
Text: (§2) FIG. 1. A) 14 evaluable NHL patients treated (V. Ribrag ASH 2015): 13 WT+1 mutant by cobas® EZH2 Mutation Test (in development, Roche Molecular Systems, Inc.)*Cheson Criteria. B) EZH2 mutant cell lines are more sensitive to TAZ in vitro. […] Cell of origin of cell lines determined by RNAseq analysis (Scott et al. Blood 2014).

[2] = test system: SU-DHL-5 cell line xenograft; assay: Cell line xenograft model, tumor growth; assay type: in vivo; conditions: SU-DHL-5 xenograft model
Text: as §2

[3] = test system: PRDM1 (BLIMP1) in GCB lines; assay: PRDM1 (BLIMP1) expression by qPCR or western blot; assay type: cell-based; conditions: all GCB lines; 7 days with 1 μM TAZ vs DMSO
Method: (§3) FIG. 4. Cells were treated for 7 days with 1 μM TAZ or DMSO.

PRDM1 (BLIMP1) in TMD8 = assay: PRDM1 (BLIMP1) expression by qPCR or western blot; assay type: cell-based; conditions: ABC cell line TMD8; 7 days with 1 μM TAZ vs DMSO
Method: as §3

Cells = assay: Apoptosis, single agents or combination, 10 days (FIG. 6B); assay type: cell-based
Method: (§4) FIG. 6. A) Cells were treated for 7 days with single agents or in combination. […] This effect is not seen in the ABC cell line, TMD8. B) Cells were treated for 10 days with single agents (100 ng/mL CD40L) or in combination.

IκBα in SU-DHL-5 cells = assay: IκBα degradation in response to CD40L (FIG. 7B); assay type: cell-based; conditions: 4-day treatment, CD40L 500 ng/mL
DLBCL cell lines = assay: RNAseq GSEA for plasma and memory cell gene sets; assay type: cell-based; conditions: 1 μM TAZ for 4 days; KARPAS-422, SU-DHL-6, Farage, SU-DHL-5, TMD8, Toledo
Method: FIG. 3. […] RNAseq data from KARPAS-422 (EZH2 mutant GCB), SU-DHL-6 (EZH2 mutant GCB) Farage (EZH2 wt GCB), SU-DHL-5 (EZH2 wt GCB), TMD8 (EZH2 wt ABC) and Toledo (EZH2 wt ABC) treated with 1 μM TAZ for 4 days was analyzed using GSEA (Broad Institute) for the presence of plasma and memory cell gene sets.

B-cell lymphomas = conditions: phase I; patients with B-cell lymphomas; cited from earlier work
GCB lines = assay: Combination of CD40L with TAZ (FIG. 5); assay type: cell-based
[4] = test system: H3K27 trimethylation in KARPAS-422; assay: H3K27 trimethylation inhibition (FIG. 6C); assay type: cell-based; conditions: KARPAS-422, mutant EZH2 cell line
Method: as §4

[5] = test system: PRDM1 in SU-DHL-5 (wt EZH2); assay: PRDM1 expression after co-treatment with TAZ and CD40L (FIG. 7A); assay type: cell-based; conditions: 14-day co-treatment

oral bioavailability (Oral bioavailability) | Molecule | Combination effect with TAZ (FIG. 5) (KARPAS-422) | Combination effect with TAZ (FIG. 5) (SU-DHL5) | Combination effect with TAZ (FIG. 5) (TMD8) | tumor growth in response to TAZ treatment [1] | tumor growth in response to TAZ treatment [2] | PRDM1 (BLIMP1) expression [3] | PRDM1 (BLIMP1) expression (PRDM1 (BLIMP1) in TMD8) | apoptosis, single agent compared to DMSO (Cells) | IκBα degradation in response to CD40L (IκBα in SU-DHL-5 cells) | plasma cell and memory cell gene sets (RNAseq, GSEA) (DLBCL cell lines) | clinical response (B-cell lymphomas) | Combination effect with TAZ (FIG. 5) (GCB lines) | apoptosis, combination with TAZ compared to TAZ single agent (Cells; 100 ng/mL CD40L) | effect on TAZ inhibition of H3K27 trimethylation [4] | PRDM1 expression, co-treatment with TAZ [5]
 | COc1cc(Nc2ncc(F)c(Nc3ccc4c(n3)NC(=O)C(C)(C)O4)n2)cc(OC)c1OC [Tamatinib] | Synergy | Synergy | Synergy |  |  |  |  |  |  |  |  |  |  |  | 
orally bioavailable | CCN(c1cc(-c2ccc(CN3CCOCC3)cc2)cc(C(=O)NCc2c(C)cc(C)[nH]c2=O)c1C)C1CCOCC1 [tazemetostat] |  |  |  | tumor growth inhibition | tumor growth inhibition | increase | slight decrease | significant increase of apoptosis | does not affect | induces a gene set that is heavily enriched for plasma cell and memory cell genes | objective clinical responses |  |  |  | 
 | CD40L: recombinant CD40L, a B-cell co-stimulatory molecule (protein, UniProt P29965 113-261, looked up) CD40 ligand, soluble form: MQKGDQNPQIAAHVISEASSKTTSVLQWAEKGYYTMSNNLVTLENGKQLTVKRQGLYYIYAQVTFCSNREASSQAPFIASLCLKSPGRFERILLRAANTHSSAKPCGQQSIHLGGVFELQPGASVFVNVTDPSQVSHGTGFTSFGLLKL |  |  | slight synergy |  |  |  |  |  |  |  |  | antagonism | significant decrease of apoptosis | does not affect | up-regulation of PRDM1
